Consider ten compounds from patent publication US20070112015A1, “Substituted dihydropyridines and methods of use” (ChemoCentryx, Inc., priority 2005, published 2007).

pIC50: −log10 of the molar value. A value given as a limit tells only on which side of the number the result lay.

One may read the pIC50 as the negative decadic logarithm of the IC50, by convention in mol/L.

The assay concerns the target T1, human C5a receptor (Homo sapiens, UniProt P21730).
T1 construct: expressed in transfected cells; alternatively isolated human neutrophils (endogenous receptor)
T1 sequence (P21730 1-350): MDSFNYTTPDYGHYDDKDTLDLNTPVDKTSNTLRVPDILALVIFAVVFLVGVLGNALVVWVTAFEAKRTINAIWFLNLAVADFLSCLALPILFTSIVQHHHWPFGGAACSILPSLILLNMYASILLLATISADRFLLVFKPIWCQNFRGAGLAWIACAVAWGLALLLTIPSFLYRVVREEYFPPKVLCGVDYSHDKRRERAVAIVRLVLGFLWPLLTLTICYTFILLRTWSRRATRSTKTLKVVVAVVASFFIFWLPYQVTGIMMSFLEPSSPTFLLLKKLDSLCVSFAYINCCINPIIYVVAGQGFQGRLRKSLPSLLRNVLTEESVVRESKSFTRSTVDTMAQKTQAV
Briefly: Inhibition of C5aR ligand binding (125I labeled C5a). The note with it: 125I labeled C5a binding to C5aR expressing cells (L1.2 C5aR cells or neutrophils). On the procedure:
L1.2 cells (ATCC #HB-12624) were transfected with a mammalian expression vector constitutively expressing the human C5a receptor (Genbank accession # NM_001736). A stable cell line was produced by selection with G418 for the co-expressed resistance marker. These cells were cultured as a suspension in RPMI-1640 medium supplemented with 2 mM L-glutamine, 1.5 g/L sodium bicarbonate, 4.5 g/L glucose, 10 mM HEPES, 1 mM sodium pyruvate, and 10% FBS. Cells were grown under 5% CO2/95% air, 100% humidity at 37° C. and subcultured twice weekly at 1:6 (cells were cultured at a density range of 1×10^5 to 2×10^6 cells/mL) and harvested at 1×10^6 cells/mL. L1.2 C5aR cells express C5a receptor and can be used in C5aR ligand binding and functional assays.
Neutrophils were isolated from fresh human blood using density separation and centrifigation. Briefly, whole blood is incubated with equal parts 3% dextran and allowed to separate for 45 minutes. After separation, the top layer is then layered on top of 15 mls of Ficoll (15 mls of Ficoll for every 30 mls of blood suspension) and centrifuged for 30 minutes at 400×g with no brake. The pellet at the bottom of the tube is then isolated and resuspended into PharmLyse RBC Lysis Buffer (BD Biosciences, San Jose, Calif.) after which the sample is again centrifuged for 10 minutes at 400×g with brake. The remaining cell pellet is resuspended as appropriate and consists of isolated neutrophils.
C5aR expressing cells were centrifuged and resuspended in assay buffer (20 mM HEPES pH 7.1, 140 mM NaCl, 1 mM CaCl2, 5 mM MgCl2, and with 0.2% bovine serum albumin) to a concentration of 5×10^6 cells/mL for L1.2 C5aR cells and […]. Binding assays were set up as follows. 0.1 mL of cells (5×10^5 L1.2 C5aR cells/well or 1×10^5 neutrophils) was added to the assay plates containing the compounds, giving a final concentration of ˜2-10 μM each compound for screening (or part of a dose response for compound IC50 determinations). Then 0.1 mL of ^125I labeled C5a (obtained from Perkin Elmer Life Sciences, Boston, Mass.) diluted in assay buffer to a final concentration of ˜50 pM, yielding ˜30,000 cpm per well, was added (using ^125I labeled C5a with L1.2 C5aR cells and with neutrophils), the plates sealed and incubated for approximately 3 hours at 4° C. on a shaker platform. Reactions were aspirated onto GF/B glass filters pre-soaked in 0.3% polyethyleneimine (PEI) solution, on a vacuum cell harvester (Packard Instruments; Meriden, Conn.). Scintillation fluid (40 μl; Microscint 20, Packard Instruments) was added to each well, the plates were sealed and radioactivity measured in a Topcount scintillation counter (Packard Instruments). Control wells containing either diluent only (for total counts) or excess C5a (1 µg/mL, for non-specific binding) were used to calculate the percent of total inhibition for compound. The computer program Prism from GraphPad, Inc. (San Diego, Calif.) was used to calculate IC50 values. IC50 values are those concentrations required to reduce the binding of radiolabeled C5a to the receptor by 50%. (For further descriptions of ligand binding and other functional assays, see Dairaghi, et al., J. Biol. Chem. 274:21569-21574 (1999), Penfold, et al., Proc. Natl. Acad. Sci. USA. 96:9839-9844 (1999), and Dairaghi, et al, J. Biol. Chem. 272:28206-28209 (1997)).
To evaluate small organic molecules that prevent the C5a receptor from binding ligand, an assay was employed that detected radioactive ligand (i.e, C5a) binding to cells expressing C5aR on the cell surface (for example, L1.2 C5AR cells or isolated human neutrophils). For compounds that inhibited binding, whether competitive or not, fewer radioactive counts are observed when compared to uninhibited controls.
Equal numbers of cells were added to each well in the plate. The cells were then incubated with radiolabeled C5a. Unbound ligand was removed by washing the cells, and bound ligand was determined by quantifying radioactive counts. […]

In turn, `Cc1cc(C)c(C2CC(=O)C3=C(C2)NC(C2CC2)=C(C(=O)OC2CCCC2)C3c2cccc(O)c2)c(C)c1` (stereo not shown) [Compound 1.001] gave a negative-log IC50 (pIC50) of over 6.00.
`CC1=C(C(=O)OC2CCCC2)C(c2cccc(O)c2)C2=C(CC(c3ccc(C)c(F)c3)CC2=O)N1` (stereo not shown) [Compound 1.002] gave a pIC50 of over 6.00.
The value for `CC1=C(C(=O)OC2CCCC2)C(c2cccc(O)c2)C2=C(CC(c3ccc(C(F)(F)F)cc3)CC2=O)N1` (stereo not shown) [Compound 1.003] was over 6.00.
The value for `CC1=C(C(=O)OC2CCCC2)C(c2cccc(O)c2)C2=C(CC(C3CCCCC3)CC2=O)N1` (stereo not shown) [Compound 1.004] was over 6.00; that for `CC1=C(C(=O)OC2CCCC2)C(c2cccc(O)c2)C2=C(CC(c3ccc(-c4ccccc4)cc3)CC2=O)N1` (stereo not shown) [Compound 1.005] was 5.00 to 6.00; that for `CC1=C(C(=O)OC2CCCC2)C(c2cccc(O)c2)C2=C(CC(c3ccc4ccccc4c3)CC2=O)N1` (stereo not shown) [Compound 1.006] was over 6.00.
The value for `CC1=C(C(=O)OC2CCCC2)C(c2cccc(O)c2)C2=C(CN(c3ccccc3)CC2=O)N1` (stereo not shown) [Compound 1.007] was 5.00 to 6.00; that for `CCOC(=O)C1=C(CCC2CCCC2)NC2=C(C(=O)CC(c3c(C)cc(C)cc3C)C2)C1c1cccc2[nH]ccc12` (stereo not shown) [Compound 1.008] was over 6.00; that for `O=C1CC(c2ccc3c(c2)OCO3)CC2=C1C(c1cccc(O)c1)C(C(=O)OC1CCCC1)=C(CC1CCCC1)N2` (stereo not shown) [Compound 1.009] was over 6.00.
`CC(C)C1=C(C(=O)OC2CCCC2)C(c2cccc(O)c2)C2=C(CC(c3c(Cl)cncc3Cl)CC2=O)N1` (stereo not shown) [Compound 1.010] had a pIC50 of 5.00 to 6.00.
